Results: PMC13267113 (npj Drug Discovery, 2025)
Values after ≈ are worked out from the molar mass of the structure shown.

What was measured:
[1] = tested on: HEK293 (human, kidney); assay: MTT cytotoxicity HEK293; format: cell-based; details: HEK293, MTT, 72 h, n = 3, read-out: IC50 HEK293 (human, kidney)
Experimental: (§1) All cell types were cultivated at 37 °C with 5% CO2. HepG2, HEK293, HCT116, CHO-K1, HeLa-CCL-2 and Huh-7.5 were purchased from ATCC. The respective cell media (Gibco) were supplemented with 10% FBS (Gibco) before usage. Cells were used between passages #5 and #30. To obtain biological repeats, cells were split separately for at least two passages.
(§2) Cells were washed with PBS and 0.5 mL trypsin was added. Afterwards, cells were incubated for 5 min before adding 10 mL medium containing 10% FBS. Per well, 120 µL cell suspension (5 × 10^4 cells/mL) was seeded in transparent 96-well cell bind plates and incubated for 2 h (37 °C, 5% CO2). A dilution series (1:3) of test compounds was prepared in respective media containing 10% FBS and added (60 µL) to the prepared cell plate. Cells were incubated for a further 72 h (37 °C, 5% CO2). Next, 20 µL MTT (5 mg/mL in PBS) was added to each well and incubated for 2 h (37 °C, 5% CO2). The wells were emptied and 100 µL isopropanol/10 N HCl (1000:4) per well was added.
(§3) The plates were analyzed by measuring the absorbance at 570 nm (plate reader Infinite® 200 Pro, Tecan). After normalization of data to the respective solvent controls, the calculated percentage of growth inhibition was plotted using GraphPad Prism software (version 10.0.2).

[2] = Mouse plasma protein binding; format: in vitro ADME; details: read-out: Mouse PPB (converted)
[3] = tested on: HepG2 (human, liver); assay: MTT cytotoxicity HepG2; format: cell-based; details: 72 h, n = 3
Experimental: as §1, §2, §3

[4] = Metabolic stability in mouse hepatocytes; format: in vitro ADME
Experimental: For the evaluation of combined phase I and phase II metabolic stability, the compound (1 μM) was incubated with 0.25 × 10^6 cells/mL of pooled mouse hepatocytes (Xenotech, Kansas City, USA). Cells were thawed in Leibovitz’s L-15 medium without phenol red (ThermoFisher Scientific, Waltham, USA). Briefly, cells were transferred into 50 mL of medium, followed by centrifugation at 55 g for 6 min. Supernatant was discarded, and the cell count was determined after gently resuspending the cell pellet in 1mL of medium. Hepatocytes were diluted to 0.5 × 10^6 cells/mL and incubated at 37 °C, 700 rpm for 10 min, to achieve the desired final cell count after addition of an equal volume of test compounds in medium, leading to a final test concentration of 1 µM at 1% DMSO. […] For the determination of metabolism in the presence of cobicistat, this drug was added together with test compounds in the desired concentration range. The metabolic stability of testosterone, verapamil, ketoconazole and 7-hydroxycoumarine were determined in parallel to confirm the enzymatic activity of mouse hepatocytes. […] Concentration of the remaining test compound at the different time points was analyzed by HPLC-MS/MS (Vanquish Flex coupled to a TSQ Altis Plus, Thermo Fisher, Dreieich, Germany) and used to determine half-life (t1/2). Intrinsic clearance was calculated as follows:2 CLintµL/min×10^6cells=Incubation volumeµL×ln(2)/Cells in incubation mixture[10^6]×t1/2
For metabolite identification studies, test compounds were incubated at 10 µM final concentration and samples were analyzed using HPLC-HRMS (Ultimate 3000 coupled to a Q Exactive Focus, Thermo Fisher, Dreieich, Germany). […] Blank samples using DMSO were run in parallel for background subtraction. Sample processing for metabolite identification was performed using Compound Discoverer 3.2 (Thermo Fisher, Dreieich, Germany). Metabolites were identified based on mass shifts and feasibility of the metabolic reaction, also in view of MS peak intensities over time.

[5] = target: T1, human DNA topoisomerase IIα (TOP2A) (Homo sapiens, UniProt P11388); assay: human topoisomerase II alpha decatenation assay; format: biochemical; details: n = 3, read-out: IC50 against TOP2A
T1 construct: purchased Inspiralis
T1 sequence (P11388 whole entry): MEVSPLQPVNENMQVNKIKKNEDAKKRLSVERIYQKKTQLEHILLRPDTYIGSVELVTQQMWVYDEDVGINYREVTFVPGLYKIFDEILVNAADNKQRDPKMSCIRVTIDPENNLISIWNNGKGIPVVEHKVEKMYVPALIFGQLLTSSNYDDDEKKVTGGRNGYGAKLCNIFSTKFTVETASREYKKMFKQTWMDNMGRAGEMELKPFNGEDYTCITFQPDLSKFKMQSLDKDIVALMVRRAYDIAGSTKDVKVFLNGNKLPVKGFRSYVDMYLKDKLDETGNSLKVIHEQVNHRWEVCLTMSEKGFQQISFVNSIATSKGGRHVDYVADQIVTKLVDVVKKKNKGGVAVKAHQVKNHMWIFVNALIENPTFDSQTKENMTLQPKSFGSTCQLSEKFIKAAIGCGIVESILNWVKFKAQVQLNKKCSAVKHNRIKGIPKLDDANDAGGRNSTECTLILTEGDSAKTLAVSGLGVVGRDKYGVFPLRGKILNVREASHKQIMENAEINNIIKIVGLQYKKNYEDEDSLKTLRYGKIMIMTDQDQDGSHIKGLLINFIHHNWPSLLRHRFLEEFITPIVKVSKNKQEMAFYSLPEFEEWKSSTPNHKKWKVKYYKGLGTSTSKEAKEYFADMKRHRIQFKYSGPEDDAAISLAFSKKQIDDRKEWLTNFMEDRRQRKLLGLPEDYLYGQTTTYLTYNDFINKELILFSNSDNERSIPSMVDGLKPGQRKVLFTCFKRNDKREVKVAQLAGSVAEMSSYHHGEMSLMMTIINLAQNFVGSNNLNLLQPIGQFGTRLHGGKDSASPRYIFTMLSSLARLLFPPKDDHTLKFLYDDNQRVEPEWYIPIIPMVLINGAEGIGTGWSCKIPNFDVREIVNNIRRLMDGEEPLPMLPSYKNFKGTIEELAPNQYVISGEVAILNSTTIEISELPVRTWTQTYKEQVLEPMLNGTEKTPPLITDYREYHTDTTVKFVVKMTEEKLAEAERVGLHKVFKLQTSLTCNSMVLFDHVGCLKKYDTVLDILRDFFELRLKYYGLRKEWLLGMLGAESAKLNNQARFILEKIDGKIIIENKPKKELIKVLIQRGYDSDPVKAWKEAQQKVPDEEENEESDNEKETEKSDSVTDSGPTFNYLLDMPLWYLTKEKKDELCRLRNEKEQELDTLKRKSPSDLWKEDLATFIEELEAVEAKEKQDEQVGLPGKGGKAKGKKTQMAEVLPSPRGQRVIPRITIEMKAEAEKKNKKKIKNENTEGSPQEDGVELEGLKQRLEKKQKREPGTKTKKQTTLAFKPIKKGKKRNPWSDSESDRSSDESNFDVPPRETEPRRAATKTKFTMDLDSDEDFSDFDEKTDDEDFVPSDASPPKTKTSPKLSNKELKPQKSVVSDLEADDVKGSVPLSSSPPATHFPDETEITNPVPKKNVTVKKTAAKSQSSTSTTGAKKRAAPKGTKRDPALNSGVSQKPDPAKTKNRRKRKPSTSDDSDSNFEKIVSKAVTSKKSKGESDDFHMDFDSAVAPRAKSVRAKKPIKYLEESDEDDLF
Experimental: Inhibition of topoisomerase activity was examined using the human topoisomerase II alpha decatenation assay kit (Inspiralis) as indicated by the manufacturer. Briefly, a compound dilution series was prepared in DMSO. Water, dilution buffer, assay buffer, plasmid and enzyme were mixed with the compound solution and incubated at 37 °C for 30 min. A positive control (100% activity) was prepared without the compound, and a negative control (0% activity) was prepared without the compound and the enzyme. The reaction was stopped by adding gSTEB-buffer and chloroform/isoamylalcohol (24:1 v/v). The samples were vortexed and centrifuged before running gel electrophoresis. The gel was stained with ethidium bromide and imaged using a Fusion Fx gel imager (Vilber Lourmat). Subsequent analysis was done using ImageJ and GraphPad Prism (Version 10.0.2).

[6] = tested on: U2OS (human, osteosarcoma); assay: MTT cytotoxicity U2OS; format: cell-based; details: 72 h, n = 3
Experimental: as §2, §3

[7] = Mouse plasma stability; format: in vitro ADME; details: read-out: Mouse plasma t1/2
[8] = physchem; details: zebrafish embryo incubation medium, aqueous buffer, kinetic from dmso stock
[9] = Metabolic stability in mouse liver microsomes; format: in vitro ADME; details: pooled mouse liver microsomes, 0.5 mg/mL microsomes, NADPH
Experimental: The metabolic stability of testosterone, verapamil and ketoconazole was determined in parallel to confirm the enzymatic activity of mouse liver microsomes. For combination experiments, cobicistat was added to the incubation mixture together with test compounds. […] Concentration of the remaining test compound at the different time points was analyzed by HPLC-MS/MS (Vanquish Flex coupled to a TSQ Altis Plus, Thermo Fisher, Dreieich, Germany) and used to determine half-life (t1/2).

[10] = tested on: HCT116 (human, colon); assay: MTT cytotoxicity HCT116; format: cell-based; details: HCT-116, 72 h, n = 3
Experimental: as §1, §2, §3

[11] = tested on: U-2 OS cells; assay: Mitochondrial superoxide formation (MitoSOX Red); format: cell-based, human; details: n = 6
Experimental: CYS was tested for its potential to induce oxidative stress in U-2 OS cells. Therefore, 120 µL of a cell suspension in McCoy’s (+10% FBS) containing 5 × 10^4 cells/mL were seeded into black 96-well imaging plate (BD Falcon). The plates were incubated for two days (37 °C, 5% CO2) until the cells reached approximately 70% confluence. Subsequently, the cells were washed with HBSS buffer, prior to adding CYS (20 µM) and the ROS inducer menadione (50 µM) as positive control, along with the staining solution (HBSS, calcium, magnesium, 5 µM MitoSOX red and 10 µg/mL Hoechst (Thermo)). To check for ROS protective properties, menadione (50 µM) was added directly to the staining solution. […] Afterwards, the cells were washed twice with HBSS. The cells were imaged using an automated fluorescence microscope (Celldiscoverer 7, Zeiss) (excitation: […]) to analyze the fluorescence intensity of the superoxide tracker MitoSOX red. The experiment was carried out with six replicates per condition. Quantification was done by high-content image analysis using the ZEN software (version 3.4, blue edition, Zeiss). Data presentation was done using GraphPad Prism (version 10.0.3) with ordinary one-way ANOVA including multiple comparisons to the control group for statistical analysis of the sample without ROS induction via menadione in the staining solution. Multiple unpaired t test was used to compare samples for ROS protective properties, which were incubated with menadione in the staining solution.

[12] = tested on: HeLa (human, cervix); assay: MTT cytotoxicity HeLa; format: cell-based; details: 72 h, n = 3
Experimental: as §1, §2, §3

[13] = tested on: HCV pseudoparticle (HCVpp; JFH1 genotype 2a, Con1 genotype 1b) entry into Huh-7.5; assay: HCVpp cell entry assay; details: Hepatitis C virus, GETYPE1B|GETYPE2A, Huh7.5, 72 h, read-out: concentration of 50% entry inhibition
[14] = tested on: SCARB1; set-up: method as in PMID 19815817; details: previous in vivo mouse studies; cited from earlier work
[15] = set-up: method as in PMID 26437376, PMID 24041792; details: cited from earlier work

C=CC1CC1(NC(=O)C12CC(NC(=O)c3ccc(C#N)cc3)(C1)C2)C(=O)Nc1ccc(C(=O)Nc2ccc(C(=O)Nc3ccc(C(=O)O)cc3)c(O)c2OC(C)C)cc1 (stereo not shown) [Cysto-180]
IC50 [1]: > 20 µM
fraction unbound [2]: 0.041
IC50 [3]: > 20 µM
major metabolic pathways ([4]; metabolite identification, 10 µM, mouse hepatocytes): amide bond hydrolysis and glucuronidation
hepatocyte CLint at 1 µM ([4]; mouse, pooled mouse hepatocytes, 1 μM, 0.25 × 10^6 cells/mL): 26 µL/min/1e6 cells
half-life at 1 µM ([4]; mouse, pooled mouse hepatocytes, 1 μM, 0.25 × 10^6 cells/mL, read-out: Mouse Hepatocytes t1/2): 0.683 ± 0.267 h
IC50 [5]: 12.2 ± 0.63 µM
IC50 [6]: > 20 µM
half-life [7]: > 4 h
solubility [8]: 200 µM (≈ 159 µg/mL)
microsomal CLint at 1 μM ([9]; read-out: MLM Clint): < 11.6 µL/min/mg
half-life at 1 µM ([9]; read-out: MLM t1/2): > 2 h
IC50 [10]: > 20 µM
basal superoxide radical levels vs DMSO control ([11]; 20 µM, MitoSOX Red, no menadione): decrease of superoxide radical levels
menadione-induced superoxide formation on co-treatment ([11]; CYS 20 µM + menadione 50 µM): no significant increase of superoxide
IC50 [12]: > 37 µM
IC50 [13]: ~3.3 µM

COc1c(NC(=O)C(=O)c2ccc(OCCN3CCOCC3)c3ccccc23)cc(C(C)(C)C)cc1NS(C)(=O)=O [ITX5061]
effect of SCARB1 suppression in mice [14]: increased beneficial HDL cholesterol levels and partially reduced atherosclerotic lesions
safety in humans [15]: safety in humans has been demonstrated
